This passage reports IC50, IC90 and CC50 results from PubChem BioAssay AID1626 (SRMLSC, 2009).

The assay has as its system M. tuberculosis H37Rv growth inhibition. Briefly: M. tuberculosis H37Rv growth inhibitors, H37Rv strain (AID 1626). The following applies: for IC90: measured here: IC90 against H37Rv; for CC50: measured here: Vero cell cytotoxicity.

With `O=[N+]([O-])c1ccc(Sc2nnnn2-c2ccccc2)nc1`, the IC50 (in general, the concentration needed to halve the response being measured) is 8.34 µM; the IC90 (in general, the point of the concentration-response curve where the effect stands at 90%) turned out to be 12.6 µM; the half-maximal cytotoxic concentration (CC50) (as a rule, the concentration that lowers cell viability or growth by half) is 8.99 µM.
For `CCN(Cc1nc2ccccc2c(=O)[nH]1)Cc1nc2ccsc2c(=O)[nH]1`, the IC50 is 15.8 µM, the IC90 is more than 100 µM and the 50% cytotoxic concentration (CC50) was more than 40 µM.
On the same counts, the results for `Cc1cc(-c2c(C)[nH]n(-c3ccccc3)c2=O)n[nH]1` are 10.5 µM, more than 100 µM and 36.2 µM.
For the compound `Cc1nc2ccc(N)cc2s1`, the IC50 is 0.6 µM and the IC90 is more than 100 µM.
For the compound `COc1ccc2nc(/N=C(\N)NC(=O)N3c4ccccc4Sc4ccccc43)nc(C)c2c1`, the half-maximal inhibitory concentration (IC50) is 28.5 µM, the IC90 is more than 100 µM and the half-maximal cytotoxic concentration (CC50) was more than 40 µM.
`Cc1ccc(NS(=O)(=O)c2cc(NC(=O)c3ccc4c(c3)NC(=O)CS4)ccc2C)c(C)c1`: the IC50 is 11.1 µM, the IC90 was more than 100 µM and the CC50 is more than 40 µM.
Turning to `O=C(NCCc1c[nH]c2ccccc12)c1cc2ccccc2oc1=O`, the half-inhibitory concentration (IC50) is less than 0.195 µM and the IC90 is less than 0.195 µM.
On to `O=C(CCl)N(c1ccccc1)c1ccccc1`, for which the IC50 was 5.73 µM, the IC90 came out at 17.6 µM and the CC50 amounted to 1.69 µM.
Consider `CCn1c(CNc2ccc(F)cc2)nnc1SCC(=O)OC1CCCCC1`, for which the IC50 was 12 µM and the IC90 is 13.7 µM.
With `Cc1ccc(NC(NC(=O)c2cccs2)C(Cl)(Cl)Cl)cc1C` (stereo not given), the IC50 was 24.3 µM, the IC90 was more than 100 µM and the CC50 is more than 40 µM.
In turn, `Cc1cc(C)cc(OCc2nnc(SCC(=O)OC(C)C)o2)c1` gave a 90% effect concentration (IC90) of more than 100 µM.
`Nc1ccccc1SCC(=O)Nc1nc(-c2ccccc2)cs1` returned an IC90 of more than 100 µM and a CC50 of more than 40 µM.
As to `COc1ccc(NS(=O)(=O)c2cc(NC(=O)[C@@H](NC(=O)c3ccccc3)C(C)C)ccc2C)cc1`, the CC50 came out at 23.3 µM.
For `Cc1ccc(NC2=C/C(=N\S(=O)(=O)c3cccs3)c3ccccc3C2=O)c(C)c1`, the IC50 was 3.89 µM, the IC90 is 5.64 µM and the CC50 worked out at 3.74 µM.
Turning to `COc1ccccc1Sc1nc(-c2ccccn2)ncc1OC`, the IC50 is 1.04 µM, the IC90 is more than 100 µM and the CC50 is 7.61 µM.
On the same counts, the results for `O=C(Nc1nnc(-c2ccc(Cl)s2)o1)C1CCCCC1` are 3.84 µM, more than 100 µM and more than 40 µM.
As for `Cc1cc(-n2c(C)cc(C(=O)COc3ccc4ccc(=O)oc4c3)c2C)no1`, the half-maximal inhibitory concentration (IC50) is 8.15 µM, the concentration for an effect of 90% (IC90) is more than 100 µM and the CC50 is more than 40 µM.
On to `CCOc1ccc(NC(=O)c2ccccc2CO)cc1`, for which the IC50 is 9.45 µM and the IC90 is more than 100 µM.
With `CCN1CCN(c2cc(-c3ccccc3)nc3cc(-c4cccc(F)c4)nn23)CC1`, the IC50 is 8.07 µM, the IC90 was 12.9 µM and the CC50 came out at 39.2 µM.
On the same counts, the results for `c1ccc(CCNc2ccnc3cc4ccccc4cc23)cc1` are 1.5 µM, 1.69 µM and 8.57 µM.
`CCc1ccc2c(c1)C1(C(=O)N2)N2CCCC2C(C(=O)c2ccc3ccccc3c2)C12C(=O)Nc1ccccc12` (stereo not given): the IC50 was 2.97 µM, the IC90 was more than 100 µM and the CC50 was found to be 17.8 µM.
For the compound `CCCCNC(=O)COC(=O)c1cc(F)c(F)cc1Cl`, the IC50 is 6.16 µM and the IC90 is more than 100 µM.
On to `COc1ccc(C2NCCc3c2[nH]c2ccccc32)cc1COc1ccc(F)cc1` (stereo not given), for which the 50% inhibitory concentration (IC50) is 3.11 µM, the IC90 worked out at 3.39 µM and the CC50 was found to be 12.1 µM.
Consider `N#CC(c1cccc(Cl)c1)c1ccc2c(C(F)(F)F)cc(C(F)(F)F)nc2n1` (stereo not given), for which the CC50 was 0.415 µM.
As to `CC(C)(C)NC(=O)COC(=O)c1cc(Br)ccc1Cl`, the IC50 is 11.9 µM and the IC90 was more than 100 µM.
Consider `Fc1cccc2sc(Nc3nnc(-c4ccco4)o3)nc12`, for which the IC50 is less than 0.195 µM, the IC90 was 3.19 µM and the CC50 is 36.4 µM.
